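Compound exposure: 48 hours, 5 concentrations, 96-well plates. GI50 = concentration required for 50% inhibition of growth.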 Activity calls are given as the source filed them. Cut-off read from the data, not from the text of the source: active = GI50 up to about 1.1 µM and inactive = higher.
Legend:
Assay in all cases: NCI-60 cell line screen, 48 h
SK-MEL-5 = system: SK-MEL-5
SK-OV-3 = system: SK-OV-3
PC-3 = system: PC-3
RXF 393 = system: RXF 393
NCI-H522 = system: NCI-H522
TK-10 = system: TK-10
SNB-75 = system: SNB-75
CCRF-CEM = system: CCRF-CEM
Hs-578T = system: Hs-578T
RPMI-8226 = system: RPMI-8226
UACC-62 = system: UACC-62
HT-29 = system: HT-29
MDA-MB-231 = system: MDA-MB-231
SF-295 = system: SF-295
M14 = system: M14
MOLT-4 = system: MOLT-4
OVCAR-3 = system: OVCAR-3
MDA-N = system: MDA-N

Structure (SMILES) | GI50 (SK-MEL-5) | GI50 (SK-OV-3) | GI50 (PC-3) | GI50 (RXF 393) | GI50 (NCI-H522) | GI50 (TK-10) | GI50 (SNB-75) | GI50 (CCRF-CEM) | GI50 (Hs-578T) | GI50 (RPMI-8226) | GI50 (UACC-62) | GI50 (HT-29) | GI50 (MDA-MB-231) | GI50 (SF-295) | GI50 (M14) | GI50 (MOLT-4) | GI50 (OVCAR-3) | GI50 (MDA-N)
NNC(=S)N/N=C(\C(=O)Nc1cccc(O)c1)C1C(=O)NC(=S)NC1=O | > 100 µM (inactive) | > 100 µM (inactive) | > 100 µM (inactive) | > 100 µM (inactive) | > 100 µM (inactive) | > 100 µM (inactive) | > 100 µM (inactive) | > 100 µM (inactive) | > 100 µM (inactive) | > 100 µM (inactive) | > 100 µM (inactive) | > 100 µM (inactive) | > 100 µM (inactive) | > 100 µM (inactive) | > 100 µM (inactive) | > 100 µM (inactive) | > 100 µM (inactive) | –
CC(C)C1=CC2=C(C(=O)C1=O)C13CCCC(C)(C)C1CC2OC3=O (stereo not given) | 25.2 µM (inactive) | 59.3 µM (inactive) | 24.2 µM (inactive) | – | 11.3 µM (inactive) | 14.8 µM (inactive) | 25.7 µM (inactive) | 3.97 µM (inactive) | 34.4 µM (inactive) | 8.18 µM (inactive) | 13.4 µM (inactive) | 12.5 µM (inactive) | 21.9 µM (inactive) | 37 µM (inactive) | 24 µM (inactive) | 6.11 µM (inactive) | 16.7 µM (inactive) | 17.9 µM (inactive)
COC1/C=C(C)/C=C/C(C)/C=C/C(=O)OC(/C(C)=C/C=C(\C)CNC(=O)[C@H](CO)NC=O)C(C)/C=C/C=C/C(OC)CC/C=C(C)/C=C/C1 (stereo not given in full) | 0.0231 µM (active) | > 1 µM (active) | 0.0264 µM (active) | 0.158 µM (active) | – | 0.356 µM (active) | > 1 µM (active) | 0.0474 µM (active) | > 0.214 µM (active) | 0.0215 µM (active) | 0.0251 µM (active) | 0.0125 µM (active) | 0.012 µM (active) | 0.0229 µM (active) | 0.0183 µM (active) | 0.0206 µM (active) | 0.039 µM (active) | –
CC(=O)C1(/N=N/c2ccc(S(N)(=O)=O)cc2)CCOC1=O (stereo not given) | > 100 µM (inactive) | > 100 µM (inactive) | > 100 µM (inactive) | > 100 µM (inactive) | > 100 µM (inactive) | > 100 µM (inactive) | > 100 µM (inactive) | > 100 µM (inactive) | > 100 µM (inactive) | – | > 100 µM (inactive) | > 100 µM (inactive) | > 100 µM (inactive) | > 100 µM (inactive) | > 100 µM (inactive) | – | > 100 µM (inactive) | > 100 µM (inactive)
Cc1ccc2c(c1C)C(=O)/C(=C/c1ccccc1C(=O)O)C2 | 42.3 µM (inactive) | – | > 100 µM (inactive) | > 100 µM (inactive) | > 100 µM (inactive) | > 100 µM (inactive) | > 100 µM (inactive) | 76.9 µM (inactive) | > 100 µM (inactive) | 45.3 µM (inactive) | > 100 µM (inactive) | > 100 µM (inactive) | – | > 100 µM (inactive) | > 100 µM (inactive) | > 100 µM (inactive) | > 100 µM (inactive) | > 100 µM (inactive)
CC(ON1[C@](C)(c2ccccc2)CC[C@@]1(C)c1ccccc1)c1ccccc1 (stereo not given in full) | 30 µM (inactive) | > 100 µM (inactive) | 39.2 µM (inactive) | 20.4 µM (inactive) | 15.3 µM (inactive) | > 100 µM (inactive) | 25.9 µM (inactive) | 22.7 µM (inactive) | 37.3 µM (inactive) | 22.4 µM (inactive) | – | 31.2 µM (inactive) | 43.3 µM (inactive) | 26.3 µM (inactive) | 24.2 µM (inactive) | 16.2 µM (inactive) | 38.4 µM (inactive) | –
CCN1CCCc2cc3c(C(F)(F)F)cc(=O)oc3cc21 | 28.6 µM (inactive) | > 100 µM (inactive) | 20.7 µM (inactive) | 20.6 µM (inactive) | 55.5 µM (inactive) | > 100 µM (inactive) | 42.5 µM (inactive) | – | – | – | > 100 µM (inactive) | 48.8 µM (inactive) | 53.2 µM (inactive) | 63.4 µM (inactive) | > 100 µM (inactive) | 42.4 µM (inactive) | 33 µM (inactive) | > 100 µM (inactive)
C=C(C)OCOCCOC | > 100 µM (inactive) | > 100 µM (inactive) | > 100 µM (inactive) | – | > 100 µM (inactive) | > 100 µM (inactive) | > 100 µM (inactive) | > 100 µM (inactive) | > 100 µM (inactive) | > 100 µM (inactive) | > 100 µM (inactive) | > 100 µM (inactive) | > 100 µM (inactive) | > 100 µM (inactive) | > 100 µM (inactive) | > 100 µM (inactive) | > 100 µM (inactive) | > 100 µM (inactive)

Source: ChEMBL document CHEMBL1201862, “PubChem BioAssay data set” (2004)
